Results as given in publication PMC5811606, “Characterization of ^111In-labeled Glucose-Dependent Insulinotropic Polypeptide as a Radiotracer for Neuroendocrine Tumors” (Scientific Reports, 2018).
Like-named read-outs stand apart in the source and are kept apart here.

How the values were obtained:
[1] = Biodistribution study, BHK-GIPR tumor mice; assay type: in vivo, BALB/c nude mice; details: female, mouse, iv, total radioactivity, BHK-GIPR tumor BALB/c nude mice, i.v., 0.2 µg, mean n=5; for tissue uptake at 1 h / tissue uptake at 4 h / tissue uptake at 24 h: BALB/c nude; for tissue uptake at 1 h / tissue to tissue ratio at 1 h: 1 h p.i.; for tissue uptake at 24 h / tissue to tissue ratio at 24 h: 24 h p.i.
Protocol: (§1) All animal experiments were approved by the Animal Welfare Body of the Radboud University, Nijmegen, The Netherlands and carried out in accordance with their guidelines. Six to eight weeks old, female BALB/c nude mice and C3H mice were purchased from Janvier labs (Le Genest Saint Isle, France). For all in vivo experiments, 6-8 weeks old female BALB/c nude mice were injected subcutaneously in the right shoulder with 0.2 ml of a 2.5 × 10^7 cells/ml suspension of BHK-GIPR transfected cells or with 0.2 ml of a 2.5 × 10^7 cells/ml suspension of NES2Y cells mixed with matrigel (2:1) in the right shoulder. When the tumor reached a diameter of 2-5 mm, mice were randomly divided in groups.
(§2) BALB/c nude mice bearing BHK-GIPR transfected tumors were injected intravenously with approximately 3 MBq (peptide dose 0.2 µg = 0.04 nmol) of [Lys^37(^111In-DTPA)]N-acetyl-GIP1-42 via the tail vein. At various time points after injection (1, 4 and 24 hours), mice were euthanized by CO2/O2 suffocation and blood, tumor and other relevant tissues were dissected, weighed and measured in a well type gamma counter. The percentage injected dose per gram (%ID/g) was calculated for each tissue. To determine whether the GIP1-42 uptake was GIPR mediated, 25 µg of unlabeled GIP1-42 was co-injected in a separate group (n = 5) and mice were euthanized four hours post-injection. BALB/c nude mice bearing NES2Y tumors (n = 5) were injected intravenously with approximately 3 MBq (peptide dose 0.2 µg = 0.04 nmol) of [Lys^37(^111In-DTPA)]N-acetyl-GIP1-42 via the tail vein. One hour after injection, mice were euthanized by CO2/O2 suffocation and blood, tumor and other relevant tissues were dissected, weighed and measured in a well type gamma counter. The percentage injected dose per gram (%ID/g) was determined for each tissue. To determine whether the GIP1-42 uptake was GIPR mediated, 25 µg of unlabeled GIP1-42 was co-injected in a separate group (n = 2) and mice were euthanized one hours post-injection.

[2] = test system: subcutaneous BHK-GIPR tumors; test: Biodistribution study, BHK-GIPR tumor mice; assay type: in vivo, BALB/c nude mice; details: biodistribution studies in BALB/c nude mice, i.v.
Protocol: as §1, §2

[3] = BHK-GIPR tumor, 0.2 ug, read-out: Tumor uptake
[4] = blood, 0.2 ug, read-out: Blood uptake
[5] = duodenum, 0.2 ug, read-out: Duodenum uptake
[6] = heart, 0.2 ug, read-out: Heart uptake
[7] = kidney, 0.2 ug, read-out: Kidney uptake
[8] = liver, 0.2 ug, read-out: Liver uptake
[9] = lung, 0.2 ug, read-out: Lung uptake
[10] = muscle, 0.2 ug, read-out: Muscle uptake
[11] = pancreas, 0.2 ug, read-out: Pancreas uptake
[12] = spleen, 0.2 ug, read-out: Spleen uptake
[13] = stomach, 0.2 ug, read-out: Stomach uptake
[14] = tumor/blood, 0.2 ug, read-out: Tumor/Blood
[15] = tumor/heart, 0.2 ug, read-out: Tumor/Heart
[16] = tumor/kidney, 0.2 ug, read-out: Tumor/Kidney
[17] = tumor/muscle, 0.2 ug, read-out: Tumor/Muscle

Structure (SMILES): CC[C@H](C)[C@H](NC(=O)[C@H](CO)NC(=O)[C@H](Cc1ccc(O)cc1)NC(=O)[C@H](CC(=O)O)NC(=O)[C@H](CO)NC(=O)[C@@H](NC(=O)[C@H](Cc1ccccc1)NC(=O)[C@@H](NC(=O)CNC(=O)[C@H](CCC(=O)O)NC(=O)[C@H](C)NC(=O)[C@H](Cc1ccc(O)cc1)NC(C)=O)[C@@H](C)O)[C@@H](C)CC)C(=O)N[C@@H](C)C(=O)N[C@@H](CCSC)C(=O)N[C@@H](CC(=O)O)C(=O)N[C@@H](CCCCN)C(=O)N[C@H](C(=O)N[C@@H](Cc1c[nH]cn1)C(=O)N[C@@H](CCC(N)=O)C(=O)N[C@@H](CCC(N)=O)C(=O)N[C@@H](CC(=O)O)C(=O)N[C@@H](Cc1ccccc1)C(=O)N[C@H](C(=O)N[C@@H](CC(N)=O)C(=O)N[C@@H](Cc1c[nH]c2ccccc12)C(=O)N[C@@H](CC(C)C)C(=O)N[C@@H](CC(C)C)C(=O)N[C@@H](C)C(=O)N[C@@H](CCC(N)=O)C(=O)N[C@@H](CCCCN)C(=O)NCC(=O)N[C@@H](CCCCN)C(=O)N[C@@H](CCCCN)C(=O)N[C@@H](CC(N)=O)C(=O)N[C@@H](CC(=O)O)C(=O)N[C@@H](Cc1c[nH]c2ccccc12)C(=O)N[C@@H](CCCCNC(=O)CN(CCN(CCN(CC(=O)O)CC(=O)O)CC(=O)O)CC(=O)O)C(=O)N[C@@H](Cc1c[nH]cn1)C(=O)N[C@@H](CC(N)=O)C(=O)N[C@H](C(=O)N[C@H](C(=O)N[C@@H](CCC(N)=O)C(=O)O)[C@@H](C)O)[C@@H](C)CC)C(C)C)[C@@H](C)CC [[Lys^37(^111In-DTPA)]N-acetyl-GIP1-42, metal not drawn]
- tissue uptake at 1 h [1, 3]: 4.69 %ID/g
- tissue uptake at 4 h ([1]; BHK-GIPR tumor, 0.2 ug, 4 h p.i., read-out: Tumor uptake): 3.27 %ID/g
- tissue uptake at 24 h [1, 3]: 2 ± 0.2 %ID/g
- tissue uptake at 4 h ([1]; BHK-GIPR tumor, 4 h p.i. + xs (25 µg unlabeled GIP1-42), read-out: Tumor uptake): 0.8 ± 0.2 %ID/g
- tissue uptake at 1 h [1, 4]: 0.248 %ID/g
- tissue uptake at 4 h ([1]; blood, 0.2 ug, 4 h p.i., read-out: Blood uptake): 0.045 %ID/g
- tissue uptake at 24 h [1, 4]: 0.017 %ID/g
- tissue uptake at 4 h ([1]; blood, 4 h p.i. + xs (25 µg unlabeled GIP1-42), read-out: Blood uptake): 0.031 %ID/g
- tissue uptake at 1 h [1, 5]: 0.561 %ID/g
- tissue uptake at 4 h ([1]; duodenum, 0.2 ug, 4 h p.i., read-out: Duodenum uptake): 0.448 %ID/g
- tissue uptake at 24 h [1, 5]: 0.378 %ID/g
- tissue uptake at 4 h ([1]; duodenum, 4 h p.i. + xs (25 µg unlabeled GIP1-42), read-out: Duodenum uptake): 0.392 %ID/g
- tissue uptake at 1 h [1, 6]: 0.2 %ID/g
- tissue uptake at 4 h ([1]; heart, 0.2 ug, 4 h p.i., read-out: Heart uptake): 0.116 %ID/g
- tissue uptake at 24 h [1, 6]: 0.081 %ID/g
- tissue uptake at 4 h ([1]; heart, 4 h p.i. + xs (25 µg unlabeled GIP1-42), read-out: Heart uptake): 0.096 %ID/g
- tissue uptake at 1 h [1, 7]: 211 %ID/g
- tissue uptake at 4 h ([1]; kidney, 0.2 ug, 4 h p.i., read-out: Kidney uptake): 228 %ID/g
- tissue uptake at 24 h [1, 7]: 173 %ID/g
- tissue uptake at 4 h ([1]; kidney, 4 h p.i. + xs (25 µg unlabeled GIP1-42), read-out: Kidney uptake): 227 %ID/g
- tissue uptake at 1 h [1, 8]: 1.1 %ID/g
- tissue uptake at 4 h ([1]; liver, 0.2 ug, 4 h p.i., read-out: Liver uptake): 1.16 %ID/g
- tissue uptake at 24 h [1, 8]: 0.695 %ID/g
- tissue uptake at 4 h ([1]; liver, 4 h p.i. + xs (25 µg unlabeled GIP1-42), read-out: Liver uptake): 1.09 %ID/g
- tissue uptake at 1 h [1, 9]: 0.545 %ID/g
- tissue uptake at 4 h ([1]; lung, 0.2 ug, 4 h p.i., read-out: Lung uptake): 0.332 %ID/g
- tissue uptake at 24 h [1, 9]: 0.184 %ID/g
- tissue uptake at 4 h ([1]; lung, 4 h p.i. + xs (25 µg unlabeled GIP1-42), read-out: Lung uptake): 0.331 %ID/g
- tissue uptake at 1 h [1, 10]: 0.135 %ID/g
- tissue uptake at 4 h ([1]; muscle, 0.2 ug, 4 h p.i., read-out: Muscle uptake): 0.082 %ID/g
- tissue uptake at 24 h [1, 10]: 0.058 %ID/g
- tissue uptake at 4 h ([1]; muscle, 4 h p.i. + xs (25 µg unlabeled GIP1-42), read-out: Muscle uptake): 0.068 %ID/g
- tissue uptake at 1 h [1, 11]: 0.296 %ID/g
- tissue uptake at 4 h ([1]; pancreas, 0.2 ug, 4 h p.i., read-out: Pancreas uptake): 0.193 %ID/g
- tissue uptake at 24 h [1, 11]: 0.137 %ID/g
- tissue uptake at 4 h ([1]; pancreas, 4 h p.i. + xs (25 µg unlabeled GIP1-42), read-out: Pancreas uptake): 0.147 %ID/g
- tissue uptake at 1 h [1, 12]: 0.603 %ID/g
- tissue uptake at 4 h ([1]; spleen, 0.2 ug, 4 h p.i., read-out: Spleen uptake): 0.528 %ID/g
- tissue uptake at 24 h [1, 12]: 0.493 %ID/g
- tissue uptake at 4 h ([1]; spleen, 4 h p.i. + xs (25 µg unlabeled GIP1-42), read-out: Spleen uptake): 0.519 %ID/g
- tissue uptake at 1 h [1, 13]: 0.502 %ID/g
- tissue uptake at 4 h ([1]; stomach, 0.2 ug, 4 h p.i., read-out: Stomach uptake): 0.362 %ID/g
- tissue uptake at 24 h [1, 13]: 0.258 %ID/g
- tissue uptake at 4 h ([1]; stomach, 4 h p.i. + xs (25 µg unlabeled GIP1-42), read-out: Stomach uptake): 0.268 %ID/g
- tissue to tissue ratio at 24 h ([1]; tumor and lung, 0.2 ug, read-out: Tumor/Lung): 11.3
- tissue to tissue ratio at 1 h [1, 14]: 21.8
- tissue to tissue ratio at 4 h ([1]; tumor/blood, 0.2 ug, 4 h p.i., read-out: Tumor/Blood): 77.6
- tissue to tissue ratio at 24 h [1, 14]: 130
- tissue to tissue ratio at 4 h ([1]; tumor/blood, 4 h p.i. + xs (25 µg unlabeled GIP1-42), read-out: Tumor/Blood): 29.8
- tissue to tissue ratio at 1 h [1, 15]: 23.6
- tissue to tissue ratio at 4 h ([1]; tumor/heart, 0.2 ug, 4 h p.i., read-out: Tumor/Heart): 29
- tissue to tissue ratio at 24 h [1, 15]: 25.5
- tissue to tissue ratio at 4 h ([1]; tumor/heart, 4 h p.i. + xs (25 µg unlabeled GIP1-42), read-out: Tumor/Heart): 8.89
- tissue to tissue ratio at 1 h [1, 16]: 0.023
- tissue to tissue ratio at 4 h ([1]; tumor/kidney, 0.2 ug, 4 h p.i., read-out: Tumor/Kidney): 0.014
- tissue to tissue ratio at 24 h [1, 16]: 0.011
- tissue to tissue ratio at 4 h ([1]; tumor/kidney, 4 h p.i. + xs (25 µg unlabeled GIP1-42), read-out: Tumor/Kidney): 0.004
- tissue to tissue ratio at 1 h ([1]; tumor/lung, 0.2 ug, read-out: Tumor/Lung): 8.64
- tissue to tissue ratio at 4 h ([1]; tumor/lung, 0.2 ug, 4 h p.i., read-out: Tumor/Lung): 10.1
- tissue to tissue ratio at 4 h ([1]; tumor/lung, 4 h p.i. + xs (25 µg unlabeled GIP1-42), read-out: Tumor/Lung): 2.68
- tissue to tissue ratio at 1 h [1, 17]: 35
- tissue to tissue ratio at 4 h ([1]; tumor/muscle, 0.2 ug, 4 h p.i., read-out: Tumor/Muscle): 40.4
- tissue to tissue ratio at 24 h [1, 17]: 36.4
- tissue to tissue ratio at 4 h ([1]; tumor/muscle, 4 h p.i. + xs (25 µg unlabeled GIP1-42), read-out: Tumor/Muscle): 12.4
- blood clearance [2]: cleared from the blood very rapidly
